How the values were obtained:
Homo sapiens [1] = assay: Toxicity in human patient infected with Trypanosoma cruzi assessed as occurrence of Heartburn at 5 mg/kg/day for 60 days; type: organism-based; settings: in vivo, 1440 h
Homo sapiens [2] = assay: Toxicity in human patient infected with Trypanosoma cruzi assessed as occurrence of Paresthesia at 5 mg/kg/day for 60 days; type: organism-based; settings: in vivo, 1440 h
Homo sapiens [3] = assay: Toxicity in human patient infected with Trypanosoma cruzi assessed as occurrence of Arthritis at 5 mg/kg/day for 60 days; type: organism-based; settings: in vivo, 1440 h
Homo sapiens [4] = organism: Homo sapiens; assay: Toxicity in human patient infected with Trypanosoma cruzi assessed as occurrence of paresthesias on 4th week of treatment; type: organism-based; settings: in vivo
Homo sapiens [5] = assay: Toxicity in human patient infected with Trypanosoma cruzi assessed as occurrence of Hyperpigmentation at 5 mg/kg/day for 60 days; type: organism-based; settings: in vivo, 1440 h
Homo sapiens [6] = assay: Toxicity in human patient infected with Trypanosoma cruzi assessed as occurrence of Hearing impairment at 5 mg/kg/day for 60 days; type: organism-based; settings: in vivo, 1440 h
Homo sapiens [7] = organism: Homo sapiens; assay: Toxicity in human patient infected with Trypanosoma cruzi assessed as occurrence of agranulocytosis after 2nd week of treatment; type: organism-based; settings: in vivo
Homo sapiens [8] = assay: Toxicity in human patient infected with Trypanosoma cruzi assessed as occurrence of Nausea at 5 mg/kg/day for 60 days; type: organism-based; settings: in vivo, 1440 h
Homo sapiens [9] = organism: Homo sapiens; assay: Toxicity in human patient infected with Trypanosoma cruzi assessed as occurrence of dermatitis with cutaneous eruptions on day 7 to 10; type: organism-based; settings: in vivo
Homo sapiens [10] = assay: Toxicity in human patient infected with Trypanosoma cruzi assessed as occurrence of Dyshidrosis at 5 mg/kg/day for 60 days; type: organism-based; settings: in vivo, 1440 h
Homo sapiens [11] = assay: Toxicity in human patient infected with Trypanosoma cruzi assessed as occurrence of Aphthous stomatitis at 5 mg/kg/day for 60 days; type: organism-based; settings: in vivo, 1440 h
Homo sapiens [12] = assay: Toxicity in human patient infected with Trypanosoma cruzi assessed as occurrence of Urticaria at 5 mg/kg/day for 60 days; type: organism-based; settings: in vivo, 1440 h
Homo sapiens [13] = organism: Homo sapiens; assay: Toxicity in human patient infected with Trypanosoma cruzi assessed as occurrence of lymphadenopathy; type: organism-based; settings: in vivo
Homo sapiens [14] = organism: Homo sapiens; assay: Toxicity in human patient infected with Trypanosoma cruzi assessed as occurrence of myalgias; type: organism-based; settings: in vivo
Homo sapiens [15] = assay: Toxicity in human patient infected with Trypanosoma cruzi assessed as occurrence of Fever at 5 mg/kg/day for 60 days; type: organism-based; settings: in vivo, 1440 h
Homo sapiens [16] = assay: Toxicity in human patient infected with Trypanosoma cruzi assessed as occurrence of Anorexia at 5 mg/kg/day for 60 days; type: organism-based; settings: in vivo, 1440 h
Homo sapiens [17] = assay: Toxicity in human patient infected with Trypanosoma cruzi assessed as occurrence of Weakness at 5 mg/kg/day for 60 days; type: organism-based; settings: in vivo, 1440 h
Homo sapiens [18] = assay: Toxicity in human patient infected with Trypanosoma cruzi assessed as occurrence of Vomiting at 5 mg/kg/day for 60 days; type: organism-based; settings: in vivo, 1440 h
Homo sapiens [19] = assay: Toxicity in human patient infected with Trypanosoma cruzi assessed as occurrence of Epigastralgia at 5 mg/kg/day for 60 days; type: organism-based; settings: in vivo, 1440 h
Homo sapiens [20] = assay: Toxicity in human patient infected with Trypanosoma cruzi assessed as occurrence of Dysphagia at 5 mg/kg/day for 60 days; type: organism-based; settings: in vivo, 1440 h
Homo sapiens [21] = assay: Toxicity in human patient infected with Trypanosoma cruzi assessed as occurrence of Palmar-plantar rash at 5 mg/kg/day for 60 days; type: organism-based; settings: in vivo, 1440 h
Homo sapiens [22] = organism: Homo sapiens; assay: Toxicity in human patient infected with Trypanosoma cruzi assessed as occurrence of arthralgias; type: organism-based; settings: in vivo
Homo sapiens [23] = assay: Toxicity in human patient infected with Trypanosoma cruzi assessed as occurrence of Erythema nodosum at 5 mg/kg/day for 60 days; type: organism-based; settings: in vivo, 1440 h
Homo sapiens [24] = assay: Toxicity in human patient infected with Trypanosoma cruzi assessed as occurrence of Articular involvement at 5 mg/kg/day for 60 days; type: organism-based; settings: in vivo, 1440 h
Homo sapiens [25] = organism: Homo sapiens; assay: Toxicity in human patient infected with Trypanosoma cruzi assessed as occurrence of thrombopenic purpura after 2nd week of treatment; type: organism-based; settings: in vivo
Homo sapiens [26] = assay: Toxicity in human patient infected with Trypanosoma cruzi assessed as occurrence of Arthromyalgia at 5 mg/kg/day for 60 days; type: organism-based; settings: in vivo, 1440 h
Homo sapiens [27] = assay: Toxicity in human patient infected with Trypanosoma cruzi assessed as occurrence of dolichocolon at 5 mg/kg/day for 60 days; type: organism-based, Colon; settings: in vivo, 1440 h
Homo sapiens [28] = organism: Homo sapiens; assay: Toxicity in human patient infected with Trypanosoma cruzi assessed as occurrence of hypersensitivity on day 7 to 10; type: organism-based; settings: in vivo
Homo sapiens [29] = assay: Toxicity in human patient infected with Trypanosoma cruzi assessed as occurrence of Mucositis at 5 mg/kg/day for 60 days; type: organism-based; settings: in vivo, 1440 h
Homo sapiens [30] = assay: Toxicity in human patient infected with Trypanosoma cruzi assessed as occurrence of Gastrointestinal disorders at 5 mg/kg/day for 60 days; type: organism-based; settings: in vivo, 1440 h
Homo sapiens [31] = assay: Toxicity in human patient infected with Trypanosoma cruzi assessed as occurrence of Itching at 5 mg/kg/day for 60 days; type: organism-based; settings: in vivo, 1440 h
Homo sapiens [32] = organism: Homo sapiens; assay: Toxicity in human patient infected with Trypanosoma cruzi assessed as occurrence of polyneuritis on 4th week of treatment; type: organism-based; settings: in vivo
Homo sapiens [33] = assay: Toxicity in human patient infected with Trypanosoma cruzi assessed as occurrence of cardiac disorders at 5 mg/kg/day for 60 days; type: organism-based, Heart; settings: in vivo, 1440 h
Homo sapiens [34] = assay: Toxicity in human patient infected with Trypanosoma cruzi assessed as occurrence of Edema at 5 mg/kg/day for 60 days; type: organism-based; settings: in vivo, 1440 h
Homo sapiens [35] = assay: Toxicity in human patient infected with Trypanosoma cruzi assessed as occurrence of Headache at 5 mg/kg/day for 60 days; type: organism-based; settings: in vivo, 1440 h
Homo sapiens [36] = assay: Toxicity in human patient infected with Trypanosoma cruzi assessed as occurrence of Diarrhea at 5 mg/kg/day for 60 days; type: organism-based; settings: in vivo, 1440 h
Homo sapiens [37] = organism: Homo sapiens; assay: Toxicity in human patient infected with Trypanosoma cruzi assessed as occurrence of polyneuropathy on 4th week of treatment; type: organism-based; settings: in vivo
Homo sapiens [38] = assay: Toxicity in human patient infected with Trypanosoma cruzi assessed as occurrence of Petechial rash at 5 mg/kg/day for 60 days; type: organism-based; settings: in vivo, 1440 h
Homo sapiens [39] = assay: Toxicity in human patient infected with Trypanosoma cruzi assessed as occurrence of Dermatological disorder at 5 mg/kg/day for 60 days; type: organism-based; settings: in vivo, 1440 h
Homo sapiens [40] = assay: Toxicity in human patient infected with Trypanosoma cruzi assessed as occurrence of Abdominal bloating at 5 mg/kg/day for 60 days; type: organism-based, Abdomen; settings: in vivo, 1440 h

With O=C(Cn1ccnc1[N+](=O)[O-])NCc1ccccc1 [BENZNIDAZOLE] the Activity (Homo sapiens [1]) was “Toxic”, the Activity (Homo sapiens [2]) was 27.6% and the Activity (Homo sapiens [3]) was “Toxic”. For the same compound, the Activity (Homo sapiens [4]) was “Toxic”, the Activity (Homo sapiens [5]) was “Toxic” and the Activity (Homo sapiens [6]) was 1%. For the same compound, the Activity (Homo sapiens [7]) was “Toxic”, the Activity (Homo sapiens [8]) was “Toxic” and the Activity (Homo sapiens [9]) was “Toxic”. The Activity (Homo sapiens [10]) was “Toxic”, the Activity (Homo sapiens [11]) was 1% and the Activity (Homo sapiens [12]) was 43.4%. The Activity (Homo sapiens [13]) was “Toxic”, the Activity (Homo sapiens [14]) was “Toxic” and the Activity (Homo sapiens [15]) was 11%. For the same compound, the Activity (Homo sapiens [16]) was 40%, the Activity (Homo sapiens [17]) was 30% and the Activity (Homo sapiens [18]) was “Toxic”. The Activity (Homo sapiens [19]) was “Toxic”, the Activity (Homo sapiens [20]) was “Toxic” and the Activity (Homo sapiens [21]) was “Toxic”. For the same compound, the Activity (Homo sapiens [22]) was “Toxic”, the Activity (Homo sapiens [23]) was “Toxic” and the Activity (Homo sapiens [24]) was 36.2%. The Activity (Homo sapiens [25]) was “Toxic”, the Activity (Homo sapiens [26]) was “Toxic” and the Activity (Homo sapiens [27]) was 1.9%. The Activity (Homo sapiens [28]) was “Toxic”, the Activity (Homo sapiens [29]) was “Toxic” and the Activity (Homo sapiens [30]) was 15%. The Activity (Homo sapiens [31]) was 13.2%, the Activity (Homo sapiens [32]) was “Toxic” and the Activity (Homo sapiens [33]) was 12.4%. For the same compound, the Activity (Homo sapiens [34]) was “Toxic”, the Activity (Homo sapiens [35]) was 56.2% and the Activity (Homo sapiens [36]) was “Toxic”. For the same compound, the Activity (Homo sapiens [37]) was “Toxic”, the Activity (Homo sapiens [38]) was 35.8% and the Activity (Homo sapiens [39]) was 50.5%. The Activity (Homo sapiens [40]) was “Toxic”.

— ChEMBL document CHEMBL1671762, “Tolerance of benznidazole in treatment of Chagas' disease in adults” (Antimicrob Agents Chemother, 2010)
